# According to US11149086B2, “KV1.3 binding immunoglobulins” (Ablynx N.V., priority 2014, dated 2021):
# Bridge positions count the residues as written; N and C are the ends. Peptide text beside a SMILES is read from it.
# Assays:
# [1] = test system: CCR7−CD45RA− T cells; type: cell-based, human; conditions: monovalent Nanobodies
# Description: The purified anti-Kv1.3 Nanobodies were characterized in a T Cell-activation assay. Human T Cells were first collected from Buffy Coat blood (from healthy volunteers, Bloodbank Gent) using RosetteSep (StemCell Technologies, #15061) followed by an enrichment on Ficoll-Paque™ PLUS (GE Healthcare #17-1440-03). CCR7−CD45RA− T cells were isolated through negative selection using biotinylated antibodies against CD45RA (BD Bioscience #624008) and CCR7 (BD Bioscence #624009) in addition to the Dynabeads Biotin Binder (Invitrogen #110.47). […]
# Isolated CCR7^−CD45RA^− T Cells were then stimulated on anti-CD3 (eBioscience 16-0037-85; 540 ng/ml) coated 96-well plates at a concentration of 200 000 cells/well in absence or presence of dilution series of anti-Kv1.3 antibodies and ShK positive control (Smartox, #08SHK001). After 72 h, IFN-gamma production was measured with anti-human IFNγ antibody capture in ELISA (BD Bioscence #551221) combined with biotinylated anti-human IFNγ (BD Bioscience, #554550) and streptavidin-HRP (Dakocytomation #P0397) as detection (FIG. 11A-11B).
# In addition, also CD25 expression was measured in flow cytometry, using an anti-CD25 antibody (BD Pharmingen, cat 557138) (FIG. 11C-11D). […]
# [2] = biological target: T1, human Kv1.3 (Homo sapiens, UniProt P22001); assay: FACS competition with FAM-labeled ShK on HEK293H human Kv1.3 cells; type: binding; conditions: 70 nM ShK-FAM
# T1 construct: cell lines stably expressing the full length human Kv1.3 channel
# T1 sequence (P22001 whole entry): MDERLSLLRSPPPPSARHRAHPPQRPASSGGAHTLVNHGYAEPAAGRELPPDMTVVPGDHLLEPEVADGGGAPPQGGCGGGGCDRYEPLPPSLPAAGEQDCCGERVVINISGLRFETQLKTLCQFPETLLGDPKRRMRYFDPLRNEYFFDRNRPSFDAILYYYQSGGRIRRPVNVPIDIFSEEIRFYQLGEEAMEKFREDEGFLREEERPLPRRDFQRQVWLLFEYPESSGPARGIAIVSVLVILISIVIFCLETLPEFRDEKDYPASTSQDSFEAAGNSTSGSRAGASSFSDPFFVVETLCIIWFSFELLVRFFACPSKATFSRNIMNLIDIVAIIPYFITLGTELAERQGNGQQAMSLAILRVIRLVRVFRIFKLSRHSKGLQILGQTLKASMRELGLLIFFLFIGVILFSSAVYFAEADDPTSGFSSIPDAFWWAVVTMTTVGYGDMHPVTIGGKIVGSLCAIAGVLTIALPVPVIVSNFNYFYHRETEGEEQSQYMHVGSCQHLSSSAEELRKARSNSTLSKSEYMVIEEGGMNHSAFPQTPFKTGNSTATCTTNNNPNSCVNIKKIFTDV
# Procedure: To evaluate the competition between the toxin ShK and the Nanobodies for binding to Kv1.3, a FACS competition experiment was performed using HEK293H cells overexpressing human Kv1.3 and the parental HEK293H cells as background cell line. As detection reagent, FAM-labeled ShK was used (6-FAM-AEEAc-Stichodactyla helianthus Neurotoxin (ShK) (Bachem, H-6088, 1046522, PRT00000366/01/01)). To setup the assay, first a titration series of the labeled Shk-FAM was performed on the HEK293H Kv1.3 cells in order to determine the EC50 value for binding.
# In brief, a dilution series of ShK or Nanobody were added together with the labeled toxin to 200 000 cells in a 96-well plate. After 90 minutes incubation at 4° C., cells were washed three times before read out was performed on a FACS Canto (Becton Dickinson). First a gate was set on the intact cells as determined from the scatter profile. Next, dead cells were gated out by their fluorescence profile from the TOPRO stain (5 nM, Molecular probes, T3605). […] The percentage of inhibition for Nanobodies blocking the interaction of ShK to human Kv1.3 is depicted in Table B-11.
# [3] = test system: human PBMCs; assay: IFNγ production by human PBMCs after anti-CD3 with or without anti-CD28 stimulation; type: cell-based
# Procedure: The anti-Kv1.3 inhibitory Nanobodies were evaluated for their effect on cytokine secretion by plate-bound anti-CD3/CD28 stimulated PBMCs. ShK was included as reference compound (FIG. 30). This co-stimulation of T-cells with anti-CD3 and anti-CD28 reflects strong immune stimulation as encountered during an acute infection. Single stimulation with anti-CD3 imitates rather the moderate immune stimulation resembling the situation during e.g. an autoimmune disease.
# Briefly, PBMCs were first collected from Buffy Coat blood (from healthy volunteers, Bloodbank Gent) using RosetteSep (StemCell Technologies, #15061) followed by an enrichment on Ficoll-Paque™ PLUS (GE Healthcare #17-1440-03). The purity of the population was afterwards checked with anti-CD3 (eBioscience #12-0037-73); anti-CD8 (BD Bioscience #345775); anti-CD4 (BD Bioscience #345771); anti-CD45RO (BD Bioscience #555493); anti-CD45RA (BD Bioscience #550855) and anti-CD19 (BD Bioscience #555413) fluorescently labeled antibodies in a flow cytometric assay. […] After 72 h, IFN-gamma production was measured with anti-human IFNγ antibody capture in ELISA (BD Bioscence #551221) combined with biotinylated anti-human IFNγ (BD Bioscience, #554550) and streptavidin-HRP (Dakocytomation #P0397) as detection.
# [4] = test system: DNFB-induced delayed type hypersensitivity in Wistar rats; assay: DNFB-induced delayed-type hypersensitivity (DTH) rat model, ear swelling; type: in vivo
# Description: A delayed-type hypersensitivity (DTH) reaction is an expression of T cell-mediated immunity in response to cutaneous sensitization and challenge with reactive haptens like 2, 4-dinitrofluorobenzene (DNFB), largely mediated by skin-homing effector memory T cells (Azam P et al., J Invest Dermatol 127(6):1419-29, 2007; Matheu M P et al., Immunity 29(4):602-14, 2008). The voltage-gated potassium channel Kv1.3 is expressed in T cells, and is important in maintaining T cell activation (predominantly effector memory T cells).
# For the purpose of in vivo proof-of-concept, the efficacy of anti-Kv1.3 Nanobodies on DNFB-induced delayed type hypersensitivity in Wistar rats was evaluated. The DTH response in the rats was elicited as follows (see FIG. 37): on day 0 (start of the in-life) and day 1, 100 μl of 1% (wt/vol) DNFB prepared in 4:1 acetone/olive oil was applied to the shaved dorsum for sensitization. On day 5, animals were challenged on both sides of the right ear pinnae of the animals with 50 μl of 0.5% (wt/vol) DNFB prepared in 4:1 acetone: olive oil. […] As positive control, animals were treated with dexamethasone (topical, 0.75 mg at 1 hour and 6 hours post-challenge). On day 5 before DNFB challenge, the baseline right ear pinna thickness was measured, and the net ear swelling response was determined 24 hours after challenge with a spring-loaded micrometer.
# The DTH response in the rats was elicited as follows (see FIG. 37): on day 0 (start of the in-life) and day 1, 100 μl of 1% (wt/vol) DNFB prepared in 4:1 acetone/olive oil was applied to the shaved dorsum for sensitization. On day 5, animals were challenged on both sides of the right ear pinnae of the animals with 50 μL of 0.5% (wt/vol) DNFB prepared in 4:1 acetone: olive oil. Animals (n=10 rats/group) received two subcutaneous (s.c.) injections of either vehicle, the benchmark compound ShK or the anti-Kv1.3 Nanobody at 12 hours and/or 1 hour preceding the challenge. As positive control, animals were treated with dexamethasone (topical, 0.75 mg at 1 hour and 6 hours post-challenge). On day 5 before DNFB challenge, the baseline right ear pinna thickness was measured, and the net ear swelling response was determined 24 hours after challenge with a spring-loaded micrometer.
smiles,measurement,setting,value
"CC[C@H](C)[C@H](NC(=O)[C@@H](N)[C@@H](C)O)C(=O)N[C@H](C(=O)N[C@@H](CC(N)=O)C(=O)N[C@H](C(=O)N[C@@H](CCCCN)C(=O)N[C@H]1CSSC[C@@H]2NC(=O)[C@H](CCCCN)NC(=O)[C@H](C)NC(=O)CNC(=O)[C@H](C)NC(=O)[C@H](CO)NC(=O)[C@H](CCC(N)=O)NC(=O)CNC(=O)[C@H](Cc3ccccc3)NC(=O)[C@H](CCC(N)=O)NC(=O)[C@H](C)NC(=O)[C@H](CCCCN)NC(=O)[C@@H]3CSSC[C@@H](C(=O)N[C@@H](Cc4ccc(O)cc4)C(=O)N4CCC[C@H]4C(=O)N[C@@H](Cc4c[nH]cn4)C(=O)O)NC(=O)[C@H](CCCCN)NC(=O)[C@H](CSSC[C@H](NC(=O)[C@H](CCC(N)=O)NC(=O)[C@H](CCCCN)NC(=O)[C@@H]4CCCN4C(=O)[C@H](CO)NC(=O)[C@H]([C@@H](C)O)NC1=O)C(=O)N[C@@H](CC(C)C)C(=O)N1CCC[C@H]1C(=O)N1CCC[C@H]1C(=O)N3)NC(=O)[C@H](CCCCN)NC(=O)CNC(=O)[C@H](CC(N)=O)NC(=O)[C@H](CCSC)NC2=O)C(C)C)[C@@H](C)CC [MgTX, margatoxin, reference compound] (H-TIINVKCTSPKQCLPPCKAQFGQSAGAKCMNGKCKCYPH-OH; disulfide 7-29, 13-34, 17-36; N-terminus and C-terminus assumed)",IC50 (in M) CD25 read out,[1]; plate bound anti-CD3,no fit
same,IC50,"[1]; plate bound anti-CD3, 72 h, read-out: IC50 (in M) IFNγ read out",0.094 nM
CC[C@H](C)[C@@H]1NC(=O)[C@@H](NC(=O)[C@H](CO)NC(=O)[C@@H](N)CCCNC(=N)N)CSSC[C@@H](C(=O)O)NC(=O)[C@H]([C@@H](C)O)NC(=O)CNC(=O)[C@@H]2CSSC[C@@H]3NC(=O)[C@H](CCC(N)=O)NC(=O)[C@H](Cc4ccccc4)NC(=O)[C@H](C)NC(=O)[C@H]([C@@H](C)O)NC(=O)[C@H](CSSC[C@H](NC(=O)[C@H](Cc4ccccc4)NC(=O)[C@H](CO)NC(=O)[C@H](CC(C)C)NC(=O)[C@H](CCCNC(=N)N)NC(=O)[C@H](Cc4ccc(O)cc4)NC(=O)[C@H](CCCCN)NC(=O)[C@H](CCSC)NC(=O)[C@H](CO)NC(=O)[C@H](Cc4c[nH]cn4)NC(=O)[C@H](CCCCN)NC3=O)C(=O)N[C@@H](CCCNC(=N)N)C(=O)N[C@@H](CCCCN)C(=O)N[C@@H]([C@@H](C)O)C(=O)N2)NC(=O)[C@H](CCCNC(=N)N)NC(=O)[C@H](CO)NC(=O)[C@H](CCCCN)NC(=O)[C@@H]2CCCN2C(=O)[C@H]([C@@H](C)CC)NC(=O)[C@H]([C@@H](C)O)NC(=O)[C@H](CC(=O)O)NC1=O [ShK],"blocking of FAM labeled ShK binding to Kv1.3, in words",[2],completely blocked
same,"IFNγ production, PBMCs co-stimulated with anti-CD3 and anti-CD28","[3]; anti-CD3 and anti-CD28, 72 h",do not inhibit
same,"IFNγ production, PBMCs stimulated with anti-CD3 only","[3]; single anti-CD3 stimulation, 72 h",Inhibition
same,mean increase in ear thickness,"[4]; Example 12, two s.c. injections of 10 μg/kg, 12 h and 1 h pre-challenge",0.213±0.019 mm
same,mean increase in ear thickness,"[4]; Example 13, two s.c. injections of 100 μg/kg",0.136±0.024 mm
C[C@@H]1C[C@H]2[C@@H]3CCC4=CC(=O)C=C[C@]4(C)[C@@]3(F)[C@@H](O)C[C@]2(C)[C@@]1(O)C(=O)CO [dexamethasone],mean increase in ear thickness,"[4]; Example 12, topical 0.75 mg at 1 h and 6 h post-challenge, 24 h after challenge",0.027±0.017 mm
same,mean increase in ear thickness,"[4]; Example 13, topical 0.75 mg at 1 h and 6 h post-challenge",0.018±0.016 mm
